As a reminder, the IC50 is the point on the concentration scale where inhibition reaches its midpoint.

Active and inactive are the calls of the source.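 Rule for the calls: active = peak inhibition of the TASK1 potassium channel above a set limit at some dose, plus a fitted dose response; inactive = no inhibition at any dose, or no fitted curve.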

One test deals with Potassium channel subfamily K member 3 (Homo sapiens) (UniProt O14649). The experiment in a line: inhibition of human KCNK3 channel flux – CHO cells, FluxOR thallium flux, SAR follow-up (AID 652212). The conditions noted are these: CHO-TASK1 cells, FluxOR thallium flux fluorescence.
Sequence of Potassium channel subfamily K member 3 (Homo sapiens) (O14649 whole entry, looked up): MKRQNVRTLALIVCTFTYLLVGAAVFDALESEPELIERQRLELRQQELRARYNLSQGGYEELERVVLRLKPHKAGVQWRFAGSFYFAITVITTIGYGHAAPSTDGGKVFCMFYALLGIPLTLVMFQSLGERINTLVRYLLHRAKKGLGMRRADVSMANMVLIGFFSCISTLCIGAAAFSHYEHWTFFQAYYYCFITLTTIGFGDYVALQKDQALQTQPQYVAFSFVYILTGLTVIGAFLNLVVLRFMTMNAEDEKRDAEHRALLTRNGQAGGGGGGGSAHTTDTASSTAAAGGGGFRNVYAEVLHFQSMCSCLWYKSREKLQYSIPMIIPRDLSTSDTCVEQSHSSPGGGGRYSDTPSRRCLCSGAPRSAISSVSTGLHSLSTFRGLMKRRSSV
Take `CC(C)c1ccccc1C(=O)Nc1cccc(NC(=O)c2ccccc2OC(F)(F)F)c1`: the IC50 is 11 nM.
On the same count and under the same terms, with `Cc1cccc(C(=O)Nc2cccc(NC(=O)c3ccco3)c2)c1` the figure was 143 nM.
As to `Cc1ccccc1C(=O)Nc1cccc(NC(=O)c2ccccc2)c1`, the IC50 is 104 nM.
Still for that read-out and setting: with `Cc1cccc(C(=O)Nc2cccc(NC(=O)c3cccc(Cl)c3)c2)c1` the figure was 3 nM.
Regarding `Cc1cccc(C(=O)Nc2cccc(NC(=O)c3cccc(F)c3)c2)c1`, the IC50 is 25 nM.
For the molecule `Cc1cccc(C(=O)Nc2cccc(NC(=O)c3ccccc3C)c2)c1`, the IC50 was 91 nM.
Consider `O=C(Nc1cccc(NC(=O)c2ccoc2)c1)c1ccccc1`, for which the IC50 is 799 nM.
As for `O=C(Nc1cccc(NC(=O)c2ccsc2)c1)c1ccccc1`, the IC50 is 162 nM.
Turning to `O=C(Nc1cccc(NC(=O)c2cccs2)c1)c1ccccc1`, the IC50 is 29 nM.
As to `Cc1cccc(C(=O)Nc2cccc(NC(=O)c3ccc(Cl)cc3)c2)c1`, the IC50 was 149 nM.
Consider `O=C(Nc1cccc(NC(=O)c2ccncc2)c1)c1ccccc1`, for which the IC50 was 249 nM.
The same measure, in the same setting: with `CCOc1ccccc1C(=O)Nc1cccc(NC(=O)c2ccccc2C(F)(F)F)c1` the figure was 2 nM; with `O=C(Nc1cccc(NC(=O)c2ccccc2C(F)(F)F)c1)c1ccccc1`, 130 nM; with `COc1ccccc1C(=O)Nc1cccc(NC(=O)c2ccccc2)c1`, 222 nM.
Regarding `COc1cccc(C(=O)Nc2cccc(NC(=O)c3ccccc3)c2)c1`, the IC50 was 327 nM.
For the molecule `Cc1cccc(C(=O)Nc2cccc(NC(=O)c3ccccc3C(C)C)c2)c1`, the IC50 is 328 nM.
For `COc1ccccc1C(=O)Nc1cccc(NC(=O)c2cccc(C)c2)c1`, the IC50 was 4 nM.
With `Cc1cccc(C(=O)Nc2cccc(NC(=O)c3ccccc3Cl)c2)c1`, the IC50 is 23 nM.
`O=C(Nc1cccc(NC(=O)c2cccnc2)c1)c1ccccc1`: the IC50 was 1290 nM.
In the case of `COc1ccccc1C(=O)Nc1cccc(NC(=O)c2ccccc2C(C)C)c1`, the IC50 was 7 nM.
For `O=C(Nc1cccc(NC(=O)c2ccc(F)cc2)c1)c1ccccc1`, the IC50 was 306 nM.
As to `COc1ccccc1C(=O)Nc1cccc(NC(=O)c2ccccc2C)c1`, the IC50 was 73 nM.
Still for that read-out and setting: with `O=C(Nc1cccc(NC(=O)c2ccccn2)c1)c1ccccc1` the figure was 86 nM; with `CC(C)Oc1ccccc1C(=O)Nc1cccc(NC(=O)c2ccccc2OC(F)(F)F)c1`, 1 nM; with `Cc1cccc(C(=O)Nc2cccc(NC(=O)c3cccc(C)c3)c2)c1`, 30 nM.
`O=C(Nc1cccc(NC(=O)c2cccc(C(F)(F)F)c2)c1)c1ccccc1`: the IC50 is 157 nM.
Turning to `O=C(Nc1cccc(NC(=O)C2CCCCC2)c1)c1ccccc1`, the IC50 was 79 nM.
`COc1cccc(C(=O)Nc2cccc(NC(=O)c3cccc(C)c3)c2)c1`: the IC50 was 31 nM.
As to `O=C(Nc1cccc(NC(=O)c2ccccc2Cl)c1)c1ccccc1`, the IC50 is 497 nM.
Turning to `Cc1cccc(C(=O)Nc2cccc(NC(=O)c3ccc(N(C)C)cc3)c2)c1`, the IC50 is 145 nM.
On the same count and under the same terms, as for `COc1ccccc1C(=O)Nc1cccc(NC(=O)c2ccccc2OC(F)(F)F)c1`, the figure is 4 nM.
In the case of `COc1ccc(C(=O)Nc2cccc(NC(=O)c3cccc(C)c3)c2)cc1`, the IC50 was 1330 nM.
For the molecule `CN(C)c1ccc(C(=O)Nc2cccc(NC(=O)c3ccccc3)c2)cc1`, the 50% inhibitory concentration (IC50) was 259 nM.
Consider `COc1ccccc1C(=O)Nc1cccc(NC(=O)c2ccccc2OC)c1`, for which the 50% inhibitory concentration (IC50) was 10 nM.
Regarding `CCOc1ccccc1C(=O)Nc1cccc(NC(=O)c2ccccc2OC)c1`, the concentration for half-maximal inhibition (IC50) is 2 nM.
On the same count and under the same terms, with `O=C(Nc1cccc(NC(=O)c2cccc(Cl)c2)c1)c1ccccc1` the figure was 52 nM.

The test is the same for the next values; noted with them: CHO-TASK1 cells, FluxOR thallium flux fluorescence; at 3 µM (top of the series).
As to `O=C(Nc1cccc(NC(=O)c2ccc(Cl)cc2)c1)c1ccccc1`, the “normalized flux ratio, lower = inhibition” value is “inactive”.
As to `CC(C)(C)c1ccc(C(=O)Nc2cccc(NC(=O)c3ccccc3)c2)cc1`, the “normalized flux ratio, lower = inhibition” value was “inactive”.
Still for that read-out and setting: with `Cc1ccc(C(=O)Nc2cccc(NC(=O)c3ccccc3)c2)cc1` the entry was “inactive”; with `O=C(Nc1cccc(NC(=O)c2ccc(C(F)(F)F)cc2)c1)c1ccccc1`, “inactive”.

The record behind these values is PubChem BioAssay AID652212 (Johns Hopkins Ion Channel Center, 2013).
